Tested on: aromatase
Assay: aromatase assay according to Graves and Salhanick using human placental microsomes in vitro
Type: biochemical
Experimental: The novel compounds of formula I and their pharmaceutically acceptable salts have, for example, valuable pharmacological properties as aromatase inhibitors. […] In this experimental method, the formation of water with tritium isotopes and 17β-oestradiol obtained from [1β,2β--^3 H]-testosterone is measured as a result of the action of a compound of the formula I on the formation of the hydrogenated form of the aromatase coenzyme, nicotinamide adenine dinucleotide phosphate (NADPH).

**Q.** With `Nc1ccc(C23CC2C(=O)N(CC2CCCCC2)C3=O)cc1` (centres unmarked) [Example 12, 1-(4-Aminophenyl)-3-cyclohexylmethyl-3-azabicyclo[3.1.0]hexane-2,4-dione] as the molecule, how does the “enzyme activity (NADPH content); content of water with radioactive tritium isotopes formed from [1β,2β-3H]-testosterone” value (compared with measurements without addition of compound) read?
**A.** substantially reduces the enzyme activity

**Q.** What about the “diminution of enzyme activity in comparison measurements with known aromatase inhibitors” value (comparison with aminoglutethimide) of the same molecule?
**A.** substantially greater than with the addition of other known aromatase inhibitors, e.g. aminoglutethimide

From patent publication US4839379A, “Substituted azabicycloalkanes, the use thereof, pharmaceutical compositions containing them” (Ciba-Geigy Corporation, priority 1982, dated 1989)
